Test results reported in ChEMBL document CHEMBL5500356, “Design, synthesis, and biological evaluation of novel benzimidazole derivatives as anti-cervical cancer agents through PI3K/Akt/mTOR pathway and tubulin inhibition” (Eur J Med Chem, 2024).
Blank lines part the entries; values can stand above or below the molecule they belong to. Active and inactive are the calls of the source. The calls are words filed in the database; no cut-off is given here.

Legend:
[1] = system: SiHa; assay: Antiproliferative activity against human SiHa cells assessed as cell viability incubated for 48 hrs by MTT assay; type: functional, cell-based
[2] = system: HeLa; assay: Antiproliferative activity against human HeLa cells assessed as cell viability incubated for 48 hrs by MTT assay; type: functional, cell-based
[3] = system: Ca-Ski; assay: Antiproliferative activity against human Ca-Ski cells assessed as cell viability incubated for 48 hrs by MTT assay; type: functional, cell-based
[4] = Cytotoxicity against human L02 cells assessed as cell viability incubated for 48 hrs by MTT assay; type: toxicity, cell-based
[5] = Cytotoxicity against human HEK293T cells assessed as cell viability incubated for 48 hrs by MTT assay; type: toxicity, cell-based, HEK-293T
[6] = system: SiHa; assay: Induction of apoptosis in human SiHa cells assessed as late apoptotic cells at 4 uM incubated for 24 hr by flow cytometry based annexin V-FITC/PI double-staining analysis (reference value: 8.67%); type: functional
[7] = system: SiHa; assay: Induction of apoptosis in human SiHa cells assessed as early apoptotic cells at 4 uM incubated for 24 hr by flow cytometry based annexin V-FITC/PI double-staining analysis (reference value: 2.95%); type: functional
[8] = system: SiHa; assay: Induction of apoptosis in human SiHa cells assessed as late apoptotic cells at 8 uM incubated for 24 hr by flow cytometry based annexin V-FITC/PI double-staining analysis (reference value: 8.67%); type: functional
[9] = system: SiHa; assay: Induction of apoptosis in human SiHa cells assessed as early apoptotic cells at 8 uM incubated for 24 hr by flow cytometry based annexin V-FITC/PI double-staining analysis (reference value: 2.95%); type: functional
[10] = system: SiHa; assay: Induction of apoptosis in human SiHa cells assessed as late apoptotic cells at 16 uM incubated for 24 hr by flow cytometry based annexin V-FITC/PI double-staining analysis (reference value: 8.67%); type: functional
[11] = system: SiHa; assay: Induction of apoptosis in human SiHa cells assessed as early apoptotic cells at 16 uM incubated for 24 hr by flow cytometry based annexin V-FITC/PI double-staining analysis (reference value: 2.95%); type: functional
[12] = system: SiHa; assay: Induction of cell cycle arrest in human SiHa cells assessed as accumulation cells at G0/G1 phase at 4 uM measured after 24 hrs by flow cytometry (reference value: 80.45%); type: functional
[13] = system: SiHa; assay: Induction of cell cycle arrest in human SiHa cells assessed as accumulation cells at G2/M phase at 4 uM measured after 24 hrs by flow cytometry (reference value: 5.24%); type: functional
[14] = system: SiHa; assay: Induction of cell cycle arrest in human SiHa cells assessed as accumulation cells at S phase at 4 uM measured after 24 hrs by flow cytometry (reference value: 14.31%); type: functional
[15] = system: SiHa; assay: Induction of cell cycle arrest in human SiHa cells assessed as accumulation cells at G0/G1 phase at 8 uM measured after 24 hrs by flow cytometry (reference value: 80.45%); type: functional
[16] = system: SiHa; assay: Induction of cell cycle arrest in human SiHa cells assessed as accumulation cells at G2/M phase at 8 uM measured after 24 hrs by flow cytometry (reference value: 5.24%); type: functional
[17] = system: SiHa; assay: Induction of cell cycle arrest in human SiHa cells assessed as accumulation cells at S phase at 8 uM measured after 24 hrs by flow cytometry (reference value: 14.31%); type: functional
[18] = system: SiHa; assay: Induction of cell cycle arrest in human SiHa cells assessed as accumulation cells at G0/G1 phase at 16 uM measured after 24 hrs by flow cytometry (reference value: 80.45%); type: functional
[19] = system: SiHa; assay: Induction of cell cycle arrest in human SiHa cells assessed as accumulation cells at G2/M phase at 16 uM measured after 24 hrs by flow cytometry (reference value: 5.24%); type: functional
[20] = system: SiHa; assay: Induction of cell cycle arrest in human SiHa cells assessed as accumulation cells at S phase at 16 uM measured after 24 hrs by flow cytometry (reference value: 14.31%); type: functional
[21] = system: SiHa; assay: Inhibition of PI3K phosphorylation in human SiHa cells at 4 to 16 uM incubated for 24 hrs by Western blot analysis; type: cell-based; conditions: dose 4-16 µM
[22] = molecular target: RAC-alpha serine/threonine-protein kinase (Homo sapiens) (UniProt P31749); assay: Inhibition of Akt phosphorylation in human SiHa cells at 4 to 16 uM incubated for 24 hrs by Western blot analysis; type: cell-based; conditions: dose 4-16 µM
[23] = molecular target: Serine/threonine-protein kinase mTOR (Homo sapiens) (UniProt P42345); assay: Inhibition of mTOR phosphorylation in human SiHa cells at 4 to 16 uM incubated for 24 hrs by Western blot analysis; type: cell-based; conditions: dose 4-16 µM
[24] = system: SiHa; assay: Effect on PI3K protein expression in human SiHa cells at 4 to 16 uM incubated for 24 hrs by Western blot analysis; type: functional, cell-based; conditions: dose 4-16 µM
[25] = system: SiHa; assay: Effect on Akt protein expression in human SiHa cells at 4 to 16 uM incubated for 24 hrs by Western blot analysis; type: functional, cell-based; conditions: dose 4-16 µM
[26] = system: SiHa; assay: Effect on mTOR protein expression in human SiHa cells at 4 to 16 uM incubated for 24 hrs by Western blot analysis; type: functional, cell-based; conditions: dose 4-16 µM
[27] = molecular target: T1, Tubulin (Homo sapiens) (UniProt P68371+Q9H4B7+P0DPH7+P68366+Q13509+Q71U36+P04350+Q3ZCM7+P07437+P68363+Q9BQE3+Q6PEY2+Q13885+Q9BVA1+Q9BUF5); assay: Inhibition of tubulin formation in human SiHa cells incubated for 24 hrs by Western blot analysis; type: cell-based
[28] = molecular target: T1, Tubulin (Homo sapiens); assay: Inhibition of tubulin polymerization in human SiHa cells incubated for 24 hrs by DAPI fluorescence staining assay; type: cell-based; conditions: dose 4-16 µM
[29] = Acute toxicity in AB-wild type zebrafish embryo assessed as mortalities at 12.5 uM measured after 96 hrs; design: species or system Danio rerio; conditions: in vivo, read-out: Activity
[30] = Acute toxicity in AB-wild type zebrafish embryo assessed as mortalities at 25 uM measured after 96 hrs; design: species or system Danio rerio; conditions: in vivo, read-out: Activity
[31] = Acute toxicity in AB-wild type zebrafish embryo assessed as mortalities at 50 uM measured after 96 hrs; design: species or system Danio rerio; conditions: in vivo, read-out: Activity
[32] = Acute toxicity in AB-wild type zebrafish embryo assessed as mortalities at 100 uM measured after 96 hrs; design: species or system Danio rerio; conditions: in vivo, read-out: Activity
[33] = Acute toxicity in AB-wild type zebrafish embryo assessed as mortalities at 200 uM measured after 96 hrs; design: species or system Danio rerio; conditions: in vivo, read-out: Activity
[34] = Acute toxicity in AB-wild type zebrafish embryo assessed as mortalities at 400 uM measured after 96 hrs; design: species or system Danio rerio; conditions: in vivo, read-out: Activity
[35] = Acute toxicity in AB-wild type zebrafish embryo assessed as malformation rate at 12.5 uM measured after 96 hrs; design: species or system Danio rerio; conditions: in vivo
[36] = Acute toxicity in AB-wild type zebrafish embryo assessed as malformation rate at 25 uM measured after 96 hrs; design: species or system Danio rerio; conditions: in vivo
[37] = Acute toxicity in AB-wild type zebrafish embryo assessed as malformation rate at 50 uM measured after 96 hrs; design: species or system Danio rerio; conditions: in vivo
[38] = Acute toxicity in AB-wild type zebrafish embryo assessed as malformation rate at 100 uM measured after 96 hrs; design: species or system Danio rerio; conditions: in vivo
[39] = Acute toxicity in AB-wild type zebrafish embryo assessed as malformation rate at 200 uM measured after 96 hrs; design: species or system Danio rerio; conditions: in vivo
[40] = Acute toxicity in AB-wild type zebrafish embryo assessed as malformation rate at 400 uM measured after 96 hrs; design: species or system Danio rerio; conditions: in vivo

Chain of RAC-alpha serine/threonine-protein kinase (Homo sapiens) (P31749 whole entry): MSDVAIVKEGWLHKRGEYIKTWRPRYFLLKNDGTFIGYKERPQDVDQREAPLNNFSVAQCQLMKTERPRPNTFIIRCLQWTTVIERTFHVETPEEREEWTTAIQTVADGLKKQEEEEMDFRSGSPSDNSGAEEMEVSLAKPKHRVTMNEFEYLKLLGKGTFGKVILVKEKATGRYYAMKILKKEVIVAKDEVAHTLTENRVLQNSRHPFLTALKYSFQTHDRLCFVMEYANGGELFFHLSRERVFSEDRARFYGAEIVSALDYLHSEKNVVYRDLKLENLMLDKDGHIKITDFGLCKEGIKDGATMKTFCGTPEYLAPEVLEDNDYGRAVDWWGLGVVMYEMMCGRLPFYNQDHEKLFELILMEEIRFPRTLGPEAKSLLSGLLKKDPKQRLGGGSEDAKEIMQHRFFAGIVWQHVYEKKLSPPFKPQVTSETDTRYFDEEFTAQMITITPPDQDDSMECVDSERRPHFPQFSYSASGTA

IC50 [2]: 1.61 µM
SMILES: COc1cc(OC)c(-c2nc3cc(N4CCN(C)CC4)c(C#Cc4ccc(Cl)cc4)cc3[nH]2)cc1OC
IC50 [1]: 3.03 µM
IC50 [3]: > 100 µM
IC50 at 48 h [4]: 1.38 µM
IC50 at 48 h [5]: 1.64 µM

IC50 [2]: 1.73 µM
SMILES: COc1cc(-c2nc3cc(N4CCN(C)CC4)c(C#Cc4ccccc4Cl)cc3[nH]2)cc(OC)c1OC
IC50 [1]: 1.4 µM
IC50 [3]: 3.15 µM
IC50 at 48 h [4]: 1.29 µM
IC50 at 48 h [5]: 0.8 µM

IC50 [2]: 2.96 µM
SMILES: COc1cc(OC)c(-c2nc3cc(N4CCN(C)CC4)c(C#Cc4ccccc4Cl)cc3[nH]2)cc1OC
IC50 [1]: 6.07 µM
IC50 [3]: 5.34 µM
IC50 at 48 h [4]: 2.04 µM
IC50 at 48 h [5]: 4.55 µM

IC50 [2]: 4.96 µM
SMILES: COc1cc(-c2nc3cc(N4CCN(C)CC4)c(C#Cc4ccccc4)cc3[nH]2)cc(OC)c1OC
IC50 [1]: 5.05 µM
IC50 [3]: 4.34 µM
IC50 at 48 h [4]: 3.82 µM
IC50 at 48 h [5]: 1.2 µM

IC50 [2]: 29.3 µM
SMILES: COc1cc(OC)c(-c2nc3cc(N4CCOCC4)c(C#Cc4ccc(C(F)(F)F)cc4)cc3[nH]2)cc1OC
IC50 [1]: > 100 µM
IC50 [3]: > 100 µM
IC50 at 48 h [4]: > 100 µM
IC50 at 48 h [5]: > 100 µM

Continued, molecule first:

SMILES: COc1cc(OC)c(-c2nc3cc(N4CCOCC4)c(C#Cc4ccccc4)cc3[nH]2)cc1OC
IC50 [1]: 25.1 µM
IC50 [2]: 19.3 µM
IC50 [3]: 19.5 µM
IC50 at 48 h [4]: 34.1 µM
IC50 at 48 h [5]: 13.2 µM

SMILES: COc1cc(-c2nc3cc(N4CCN(C)CC4)c(C#Cc4ccc(C(F)(F)F)cc4)cc3[nH]2)cc(OC)c1OC
IC50 [1]: 6.54 µM
IC50 [2]: 3.13 µM
IC50 [3]: 1.38 µM
IC50 at 48 h [4]: 2.3 µM
IC50 at 48 h [5]: 1.41 µM

SMILES: COc1cc(-c2nc3cc(N4CCN(C)CC4)c(C#Cc4ccccc4F)cc3[nH]2)cc(OC)c1OC
IC50 [1]: 3.38 µM
IC50 [2]: 5.03 µM
IC50 [3]: 7.24 µM
IC50 at 48 h [4]: 21.1 µM
IC50 at 48 h [5]: 24 µM
Activity [6]: 8.49%
Activity [7]: 8.55%
Activity [8]: 16.43%
Activity [9]: 66.56%
Activity [10]: 15.86%
Activity [11]: 82.7%
Activity [12]: 82.4%
Activity [13]: 7.26%
Activity [14]: 9.89%
Activity [15]: 82.37%
Activity [16]: 8.92%
Activity [17]: 8.71%
Activity [18]: 55.29%
Activity [19]: 28.37%
Activity [20]: 16.33%
inhibition [21]: Active
inhibition [22]: Active
inhibition [23]: Active
Activity [24]: inactive
Activity [25]: inactive
Activity [26]: inactive
inhibition [27]: Dose-Dependent Effect
inhibition [28]: Dose-Dependent Effect
mortality at 96 h, 12.5 µM [29]: 0%
mortality at 96 h, 25 µM [30]: 0%
mortality at 96 h, 50 µM [31]: 0%
mortality at 96 h, 100 µM [32]: 0%
mortality at 96 h, 200 µM [33]: 0%
mortality at 96 h, 400 µM [34]: 0%
Activity [35]: 0%
Activity [36]: 0%
Activity [37]: 0%
Activity [38]: 0%
Activity [39]: 0%
Activity [40]: 0%

SMILES: COc1cc(-c2nc3cc(N4CCOCC4)c(C#Cc4ccccc4)cc3[nH]2)cc(OC)c1OC
IC50 [1]: 7.07 µM
IC50 [2]: 8.07 µM
IC50 [3]: 6.45 µM
IC50 at 48 h [4]: 9.09 µM
IC50 at 48 h [5]: 3.73 µM

SMILES: COc1ccc(C#Cc2cc3[nH]c(-c4cc(OC)c(OC)c(OC)c4)nc3cc2N2CCOCC2)cc1
IC50 [1]: 26.8 µM
IC50 [2]: 3.67 µM
IC50 [3]: 9.11 µM
IC50 at 48 h [4]: 8.82 µM
IC50 at 48 h [5]: 2.18 µM

SMILES: COc1cc(-c2nc3cc(N4CCOCC4)c(C#Cc4ccc(Cl)cc4)cc3[nH]2)cc(OC)c1OC
IC50 [1]: 20.9 µM
IC50 [2]: 3.23 µM
IC50 [3]: 14.4 µM
IC50 at 48 h [4]: 12.8 µM
IC50 at 48 h [5]: 15.9 µM
